Where two headings read alike, the source gives them in different places.
Test: Single dose PK in healthy subjects (Cohorts 1, 2, S1 and S2), plasma
Assay type: in vivo, human
Conditions: human, plasma, intravenous
Experimental: This study investigates (i) the safety and tolerability of Compound A (methyl (2R,3S)-3-((methylsulfonyl)amino)-2-(((cis-4-phenylcyclohexyl)oxy)methyl)piperidine-1-carboxylate) when a single dose given as a 9 hour continuous IV infusion is administered to healthy adults, healthy elderly subjects and patients with narcolepsy type 1 (NT1); (ii) the pharmacokinetics of Compound A when a single dose given as a 9 hour continuous IV infusion is administered to healthy adults, healthy elderly subjects and patients with narcolepsy type 1; and (iii) the pharmacodynamics (PD) effects of Compound A, primarily by evaluation of the sleep latency on MWT when a single dose given as a 9 hour continuous IV infusion is administered to patients with narcolepsy type 1.
Pharmacokinetics: Concentrations of Compound A in plasma, and CSF, and pharmacokinetics parameters.
On average, the time to reach the plateau appeared to be approximately 3 to 4 hours after the start of infusion. […] After switching off the IV infusion, Compound A plasma concentrations declined rapidly and in a biphasic manner with a mean terminal disposition phase t1/2z ranging approximately from 3.4 to 5.1 hours across all doses. […] Table 5 provides a summary of plasma concentrations of Compound A after a single IV infusion in healthy subjects. Table 6 provides a summary of pharmacokinetic parameters of Compound A after a single IV infusion in healthy subjects.

[1] = 28 mg, read-out: Plasma concentration, Minimum
[2] = 28 mg, read-out: Plasma concentration, Q1
[3] = 28 mg, read-out: Plasma concentration, Q3
[4] = 28 mg, read-out: Plasma concentration, Maximum
[5] = 28 mg, read-out: Plasma concentration, Mean
[6] = 28 mg, read-out: Plasma concentration, Median
[7] = 56 mg, read-out: Plasma concentration, Maximum
[8] = 56 mg, read-out: Plasma concentration, Mean
[9] = 56 mg, read-out: Plasma concentration, Median
[10] = 56 mg, read-out: Plasma concentration, Minimum
[11] = 56 mg, read-out: Plasma concentration, Q1
[12] = 56 mg, read-out: Plasma concentration, Q3
[13] = 112 mg, read-out: Plasma concentration, Maximum
[14] = 112 mg, read-out: Plasma concentration, Mean
[15] = 112 mg, read-out: Plasma concentration, Median
[16] = 112 mg, read-out: Plasma concentration, Minimum
[17] = 112 mg, read-out: Plasma concentration, Q1
[18] = 112 mg, read-out: Plasma concentration, Q3

## COC(=O)N1CCC[C@H](NS(C)(=O)=O)[C@@H]1CO[C@H]1CC[C@@H](c2ccccc2)CC1 [Compound A, methyl (2R,3S)-3-((methylsulfonyl)amino)-2-(((cis-4-phenylcyclohexyl)oxy)methyl)piperidine-1-carboxylate]
[1]
  concentration at 2 hr: 33.7 ng/mL
  concentration at 3 hr: 35.6 ng/mL
  concentration at 4 hr: 44.4 ng/mL
  concentration at 6 hr: 40.2 ng/mL
  concentration at 8 hr: 37.1 ng/mL
  concentration at 9 hr: 40.6 ng/mL
[2]
  concentration at 2 hr: 45.5 ng/mL
  concentration at 3 hr: 51.3 ng/mL
  concentration at 4 hr: 54.2 ng/mL
  concentration at 6 hr: 45.4 ng/mL
  concentration at 8 hr: 43.3 ng/mL
  concentration at 9 hr: 51 ng/mL
[3]
  concentration at 2 h: 57.8 ng/mL
  concentration at 3 h: 63.7 ng/mL
  concentration at 4 hr: 58.8 ng/mL
  concentration at 6 hr: 48.8 ng/mL
  concentration at 8 hr: 52.5 ng/mL
  concentration at 9 hr: 57.4 ng/mL
[4]
  concentration at 3 h: 65.2 ng/mL
  concentration at 4 hr: 63.1 ng/mL
  concentration at 6 hr: 51.7 ng/mL
  concentration at 8 hr: 58.8 ng/mL
  concentration at 9 hr: 58.3 ng/mL
[5]
  concentration at 3 hr: 55 ng/mL
  concentration at 4 h: 55 ng/mL
  concentration at 6 hr: 46.8 ng/mL
  concentration at 8 hr: 48.7 ng/mL
  concentration at 9 hr: 52.5 ng/mL
[6]
  concentration at 3 h: 59.3 ng/mL
  concentration at 4 hr: 54.5 ng/mL
  concentration at 6 hr: 48 ng/mL
  concentration at 8 hr: 51.7 ng/mL
  concentration at 9 hr: 55.3 ng/mL
[7]
  concentration at 0.5 h: 80.3 ng/mL
  concentration at 1 h: 91.5 ng/mL
  concentration at 1.5 h: 116 ng/mL
  concentration at 2 h: 114 ng/mL
  concentration at 3 h: 133 ng/mL
  concentration at 4 h: 144 ng/mL
  concentration at 6 h: 119 ng/mL
  concentration at 8 h: 133 ng/mL
  concentration at 9 h: 138 ng/mL
[8]
  concentration at 0.5 h: 71.2 ng/mL
  concentration at 1 h: 81.2 ng/mL
  concentration at 1.5 h: 92.8 ng/mL
  concentration at 2 h: 99.5 ng/mL
  concentration at 3 h: 114 ng/mL
  concentration at 4 hr: 118 ng/mL
  concentration at 6 hr: 91.8 ng/mL
  concentration at 8 hr: 102 ng/mL
  concentration at 9 hr: 115 ng/mL
[9]
  concentration at 0.5 h: 70.7 ng/mL
  concentration at 1 h: 79 ng/mL
  concentration at 1.5 h: 90.2 ng/mL
  concentration at 2 h: 99 ng/mL
  concentration at 3 h: 112 ng/mL
  concentration at 4 h: 113 ng/mL
  concentration at 6 h: 90.8 ng/mL
  concentration at 8 h: 99.7 ng/mL
  concentration at 9 h: 112 ng/mL
[10]
  concentration at 0.5 h: 64.4 ng/mL
  concentration at 1 h: 74.8 ng/mL
  concentration at 1.5 h: 75.5 ng/mL
  concentration at 2 h: 86.5 ng/mL
  concentration at 3 h: 98.3 ng/mL
  concentration at 4 hr: 107 ng/mL
  concentration at 6 hr: 73.5 ng/mL
  concentration at 8 hr: 84.9 ng/mL
  concentration at 9 hr: 102 ng/mL
[11]
  concentration at 0.5 h: 65 ng/mL
  concentration at 1 h: 76.2 ng/mL
  concentration at 1.5 h: 88.8 ng/mL
  concentration at 2 h: 88.8 ng/mL
  concentration at 3 h: 98.6 ng/mL
  concentration at 4 hr: 109 ng/mL
  concentration at 6 h: 73.8 ng/mL
  concentration at 8 h: 87.2 ng/mL
  concentration at 9 h: 104 ng/mL
[12]
  concentration at 0.5 h: 75.9 ng/mL
  concentration at 1 h: 86.3 ng/mL
  concentration at 1.5 h: 96.1 ng/mL
  concentration at 2 h: 110 ng/mL
  concentration at 3 h: 131 ng/mL
  concentration at 4 h: 120 ng/mL
  concentration at 6 h: 103 ng/mL
  concentration at 8 h: 108 ng/mL
  concentration at 9 h: 122 ng/mL
[13]
  concentration at 0.5 h: 174 ng/mL
  concentration at 1 h: 172 ng/mL
  concentration at 1.5 h: 255 ng/mL
[14]
  concentration at 0.5 h: 132 ng/mL
  concentration at 1 h: 154 ng/mL
  concentration at 1.5 h: 194 ng/mL
[15]
  concentration at 0.5 h: 122 ng/mL
  concentration at 1 h: 162 ng/mL
[16]
  concentration at 0.5 h: 108 ng/mL
  concentration at 1 h: 126 ng/mL
[17]
  concentration at 0.5 h: 119 ng/mL
  concentration at 1 h: 131 ng/mL
[18]
  concentration at 0.5 h: 149 ng/mL
  concentration at 1 h: 169 ng/mL
